These results are taken from ChEMBL document CHEMBL1201862, “PubChem BioAssay data set” (2004).

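1) Cells in 96-well plates. 2) Compound, 48 h, 5 concentrations. 3) Linear interpolation between surrounding doses. 4) Unreached endpoint = highest concentration. GI50 = concentration required for 50% inhibition of growth.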 Activity calls are given as the source filed them. No stated cut-off is given here; in the data, active = GI50 up to about 1.1 µM and inactive = higher. A value given as a limit tells only on which side of the number the result lay.

Test systems include SNB-19; SR; OVCAR-5; SF-295; SF-268; SN12C; SK-OV-3; HCT-116; UACC-257; NCI-H23; UO-31; LOX IMVI; NCI-H460; CCRF-CEM; K562; KM12.
Common to all, as to assay: NCI-60 cell line screen, 48 h

For the compound `COCOCCCCCO[Si](C)(C)C(C)(C)C`, the GI50 is 16 µM (inactive) with SNB-19; 18.2 µM (inactive) with SR; 16.9 µM (inactive) with OVCAR-5; 14.8 µM (inactive) in the experiment with SF-295; 5.19 µM (inactive) in the experiment with SF-268; 17.2 µM (inactive) in the experiment with SN12C. In addition, the GI50 in the experiment with SK-OV-3 was 40.6 µM (inactive); in the experiment on HCT-116, 12.9 µM (inactive); in the experiment with UACC-257 it was 16.5 µM (inactive); with NCI-H23, 17.2 µM (inactive); with UO-31, 20.5 µM (inactive); in the experiment with LOX IMVI it was 16.5 µM (inactive). Moreover, the GI50 with NCI-H460 was 19.6 µM (inactive); in the experiment with CCRF-CEM, 16.7 µM (inactive); in the experiment with K562 it was 26.4 µM (inactive); in the experiment on KM12, 23.2 µM (inactive).
For `CN(C)NC1=C([N+](=O)[O-])C=NN(c2ccccc2)C1`, the GI50 with SNB-19 was 2.54 µM (inactive); in the experiment on SR, 0.811 µM (active); in the experiment on OVCAR-5, 1.67 µM (inactive); with SF-295 it was 1.81 µM (inactive); with SF-268, 1.85 µM (inactive); in the experiment on SN12C, 1.76 µM (inactive). The GI50 in the experiment with SK-OV-3 is 1.97 µM (inactive); in the experiment on HCT-116 it was 1.82 µM (inactive); in the experiment on UACC-257, 1.74 µM (inactive); in the experiment with NCI-H23 it was 1.87 µM (inactive); with UO-31, 1.79 µM (inactive); with LOX IMVI, 1.59 µM (inactive). For the same compound, the GI50 in the experiment on NCI-H460 was 2.09 µM (inactive); with CCRF-CEM, 1.79 µM (inactive); with K562 it was 2.44 µM (inactive); in the experiment with KM12 it was 2.52 µM (inactive).
For the compound `COc1ccc(N(C)Sc2ccccc2)cc1`, the GI50 in the experiment on SNB-19 was 51.1 µM (inactive); with SR, 43.7 µM (inactive); with OVCAR-5 it was > 100 µM (inactive); in the experiment with SF-295 it was 55.1 µM (inactive); in the experiment on SF-268 it was 27.4 µM (inactive); in the experiment on SN12C, 21.1 µM (inactive). Also, the GI50 with SK-OV-3 was > 100 µM (inactive); in the experiment with HCT-116, 43.7 µM (inactive); with UACC-257, 37 µM (inactive); in the experiment on NCI-H23 it was 83.4 µM (inactive); in the experiment with UO-31 it was 34.8 µM (inactive); with LOX IMVI, 31.1 µM (inactive). Besides, the GI50 with NCI-H460 was 74.5 µM (inactive); in the experiment on CCRF-CEM it was 6.38 µM (inactive); in the experiment on K562, 41.4 µM (inactive); with KM12, 56.6 µM (inactive).
Turning to `Cc1cc([N+](=O)[O-])c(S(=O)(=O)c2ccccc2)c([N+](=O)[O-])c1`, the GI50 in the experiment with SNB-19 was 18.5 µM (inactive); in the experiment on SR, 4.59 µM (inactive); with OVCAR-5, 18.6 µM (inactive); in the experiment on SF-295 it was 18.8 µM (inactive); in the experiment on SF-268, 13.2 µM (inactive); in the experiment on SN12C, 4.43 µM (inactive). The GI50 in the experiment with SK-OV-3 is 24.8 µM (inactive); with HCT-116 it was 9.75 µM (inactive); in the experiment with UACC-257, 3.52 µM (inactive); with NCI-H23, 8.53 µM (inactive); in the experiment with UO-31, 16.9 µM (inactive); in the experiment on LOX IMVI it was 2.57 µM (inactive). Further, the GI50 was 13.4 µM (inactive) in the experiment with NCI-H460, 3.52 µM (inactive) with CCRF-CEM, 4.08 µM (inactive) with K562 and 17.1 µM (inactive) in the experiment with KM12.
With `O=C(O)/C=C\C(=O)c1ccc(Cl)cc1`, the GI50 is > 63 µM (inactive) with SNB-19; 24.3 µM (inactive) in the experiment with SR; > 100 µM (inactive) in the experiment with OVCAR-5; > 100 µM (inactive) in the experiment with SF-295; 29.4 µM (inactive) in the experiment with SF-268; 51.9 µM (inactive) with SN12C. Besides, the GI50 is > 100 µM (inactive) in the experiment on SK-OV-3; 25.2 µM (inactive) in the experiment on HCT-116; 20.1 µM (inactive) in the experiment with UACC-257; 31.8 µM (inactive) with NCI-H23; 33.9 µM (inactive) with UO-31; 24.9 µM (inactive) in the experiment with LOX IMVI. Further, the GI50 in the experiment on NCI-H460 was > 100 µM (inactive); in the experiment with CCRF-CEM, 20 µM (inactive); in the experiment with K562 it was 31.1 µM (inactive); with KM12, 52.1 µM (inactive).
For `COc1ccc(C2=C[C@]3(O)CCCN3C[C@@H]2c2ccc(OC)c(OC)c2)cc1`, the GI50 with SNB-19, in the experiment with SR, in the experiment on OVCAR-5, in the experiment with SF-295, with SF-268 and with SN12C was < 0.0001 µM (active) throughout. In addition, the GI50 with SK-OV-3, in the experiment with HCT-116, in the experiment with UACC-257, in the experiment with NCI-H23, in the experiment on UO-31 and in the experiment with LOX IMVI was < 0.0001 µM (active) in each case. Also, the GI50 in the experiment with NCI-H460, in the experiment with CCRF-CEM, in the experiment on K562 and in the experiment with KM12 was < 0.0001 µM (active) in each case.
In the case of `CC1CC(C)C(=O)C(C(=O)CC2CC(=O)NC2=O)C1` (centres undefined), the GI50 in the experiment on SNB-19, in the experiment with SR, in the experiment on OVCAR-5, in the experiment with SF-295, with SF-268 and in the experiment on SN12C was > 100 µM (inactive) throughout. Further, the GI50 in the experiment on SK-OV-3, in the experiment with HCT-116, with UACC-257, with NCI-H23, in the experiment on UO-31 and in the experiment on LOX IMVI was > 100 µM (inactive) throughout. The GI50 in the experiment on NCI-H460, in the experiment with CCRF-CEM, in the experiment with K562 and in the experiment on KM12 was > 100 µM (inactive) in each case.
As for `CC1(c2ccccc2)CC12C(=O)NC(=O)NC2=O` (centres undefined), the GI50 in the experiment with SNB-19, with SR, with OVCAR-5, in the experiment on SF-295, in the experiment with SF-268 and with SN12C was > 100 µM (inactive) throughout. The GI50 with SK-OV-3, in the experiment with HCT-116, in the experiment with UACC-257, with NCI-H23, in the experiment on UO-31 and in the experiment with LOX IMVI was > 100 µM (inactive) in each case. The GI50 in the experiment with NCI-H460 is > 10 µM (inactive); in the experiment with CCRF-CEM it was > 100 µM (inactive); in the experiment on K562, > 100 µM (inactive); in the experiment on KM12, > 100 µM (inactive).
Turning to `COC(=O)c1c(C)oc2ccc(OC(C)=O)cc12`, the GI50 with SNB-19 is > 100 µM (inactive); with SR, > 100 µM (inactive); with OVCAR-5, > 100 µM (inactive); with SF-295, > 100 µM (inactive); in the experiment with SF-268, 90.8 µM (inactive); with SN12C, > 100 µM (inactive). Besides, the GI50 in the experiment on SK-OV-3 is > 100 µM (inactive); in the experiment with HCT-116, > 100 µM (inactive); with UACC-257, > 100 µM (inactive); in the experiment with NCI-H23, > 100 µM (inactive); with UO-31, 33.6 µM (inactive); in the experiment with LOX IMVI it was > 100 µM (inactive). Besides, the GI50 with NCI-H460, in the experiment on CCRF-CEM, with K562 and with KM12 was > 100 µM (inactive) each time.
